Source: patent US9150567B2, “Substituted tetrazol-1-yl-phenoxymethyl-thiazol-2-yl-piperidinyl-pyrimidine salts” (CYMABAY THERAPEUTICS, INC., priority 2009, dated 2015)
Where a name gives a salt, the structure may show the parent alone. Read-outs that look alike come from different tables or passages of the source. One block for each compound: values may come before it.

Key:
[1] = Systemic exposure and pharmacokinetics after single oral gavage dose of 200 mg/kg in fasted male SD rats; type: in vivo, Sprague Dawley (SD) rats; details: for Fold difference in plasma concentration compared to micronized free-base form: 30 hours post-dose; for Increase of systemic drug exposure in AUC0-t compared with micro MBX-2982 (free base): equivalent amounts
Protocol: Two studies were conducted in order to compare the systemic exposure and pharmacokinetics (PK) of microcrystalline MBX-2982 and salt forms of MBX-2982 in fasted male Sprague Dawley (SD) rats following single oral gavage (PO) doses of 200 mg/kg. Four salt foms of MBX-2982 were investigate in the studies. The tested salts were HCl Form I, HCl salt Form II, mesylate salt and the tosylate salt.
Preparation of samples was performed by solvent precipitation of plasma proteins in a 1 mL/well 96-well plate. Standards were prepared by spiking 10 μL of blank plasma with 10 μL of standard solution (acetonitrile containing MBX-2982 at 0.01, 0.02, 0.05, 0.1, 0.2, 0.5, 1, 2, 5, 10, 20, 50 and 100 μg/mL) and 300 μL of 0.1% formic acid in acetonitrile containing 0.2 μg/mL internal standard. Plasma samples were prepared by adding 10 μL of plasma sample, 10 μL of acetonitrile, and 300 μL of 0.2 μg/mL internal standard in 0.1% formic acid in acetonitrile. After addition of the organic solvents, all samples were vortexed briefly and centrifuged at 3600 rpm for 10 minutes. Some of the samples were diluted 1.3 to 2-fold with blank plasma. An aliquot of the supernatant (25 μL) was transfer to a 1 mL/well 96-well plate and mixed with 200 μL water/ACN (50/50, v/v) and injected into the HPLC.
The suspensions for microcrystalline MBX-2982 (free base) and salt forms of MBX-2982 were prepared in 1% carboxymethylcellulose and 2% tween 80 in water (w/w/v).
Five groups of animals were given microcrystalline and salt forms suspension doses of MBX-2982 orally at 200 mg/kg, respectively. Food was withheld the night before dose and returned nine hours after dosing. Blood samples were collected at 0.25, 0.5, 1, 2, 4, 6, 9, 24, 30 and 48 h post dose. MBX-2982 plasma concentration from these samples was analyzed by a non-validated high performance liquid chromatography in conjunction with mass spectrometry (LC-MS/MS) method.
Plasma concentration-time data for individual animals were analyzed using WinNonlin software (Professional, version 5.0.1; Pharsight Corp.). A non-compartmental model (model 200) was used. Peak area ratios of MBX-2982 to internal standard and concentration were fitted to a quadratic equation (Calibration Curve) with 1/x weighting using a quadratic regression program in Analyst version 1.4.2 (Applied Biosystem Inc). The equations were then used to interpolate the concentrations of MBX-2982 in samples from peak area to internal standard ratio.
The following pharmacokinetic parameters were calculated: • 1) Cmax: Maximum (peak) plasma concentration • 2) Tmax: Time at which Cmax occurred • 3) t1/2: Terminal phase half-life • 4) AUC0-t: Area under the concentration-time curve from time 0 to last measurable concentration • 5) AUC0-inf: Area under the concentration-time curve from time 0 extrapolated to infinity

[2] = Moisture sorption of HCl Form I; type: physicochemical
From the text: A steady ˜0.9 wt % gain was observed between ˜5% and ˜95% RH. A complete desorption occurred upon decreasing relative humidity to ˜5% (˜0.9 wt % loss between ˜95% and ˜5% RH).

[3] = Overnight / elevated RH stress of the crystalline salts; type: physicochemical; details: overnight / elevated relative humidity stress
[4] = fasted male SD rats, single PO dose 200 mg/kg, mean ± SD

Mean plasma concentration of MBX-2982 ([1]; 0.5 h post dose, fasted male SD rats, PO 200 mg/kg, mean ± SD, hydrochloride): 9790 ± 3730 ng/mL
Mean plasma concentration of MBX-2982 ([1]; 1 h post dose, fasted male SD rats, PO 200 mg/kg, mean ± SD, hydrochloride): 15500 ± 3150 ng/mL
Mean plasma concentration of MBX-2982 ([1]; 2 h post dose, fasted male SD rats, PO 200 mg/kg, mean ± SD, hydrochloride): 24200 ± 3350 ng/mL
Mean plasma concentration of MBX-2982 ([1]; 4 h post dose, fasted male SD rats, PO 200 mg/kg, mean ± SD, hydrochloride): 31400 ± 7100 ng/mL
Mean plasma concentration of MBX-2982 ([1]; 6 h post dose, fasted male SD rats, PO 200 mg/kg, mean ± SD, hydrochloride): 28100 ± 8460 ng/mL
Mean plasma concentration of MBX-2982 ([1]; 9 h post dose, fasted male SD rats, PO 200 mg/kg, mean ± SD, hydrochloride): 23800 ± 6990 ng/mL
Mean plasma concentration of MBX-2982 ([1]; 24 h post dose, fasted male SD rats, PO 200 mg/kg, mean ± SD, hydrochloride): 7430 ± 9630 ng/mL
Mean plasma concentration of MBX-2982 ([1]; 24 h post dose, fasted male SD rats, PO 200 mg/kg, mean ± SD, listed as HCl form I, hydrochloride): 7300 ng/mL
Fold difference in plasma concentration compared to micronized free-base form ([1]; male SD rats, PO 200 mg/kg, listed as HCl form I, hydrochloride): 94 fold
Mean plasma concentration of MBX-2982 ([1]; 30 h post dose, fasted male SD rats, PO 200 mg/kg, mean ± SD, hydrochloride): 7520 ± 12630 ng/mL
Mean plasma concentration of MBX-2982 ([1]; 48 h post dose, fasted male SD rats, PO 200 mg/kg, mean ± SD, hydrochloride): 1080 ± 2310 ng/mL
Increase of systemic drug exposure in AUC0-t compared with micro MBX-2982 (free base) ([1]; male SD rats, PO 200 mg/kg, hydrochloride): 2.4 fold
concentration at 30 h ([1]; male, Sprague-Dawley, rat, plasma, po, 30 h post dose, male SD rats, PO 200 mg/kg, read-out: Plasma level at 30 hours post-dose): 7.52 ng/mL
half-life ([1]; male, Sprague-Dawley, rat, plasma, po, fasted male SD rats, single PO dose 200 mg/kg, mean ± SD): 4.01 ± 1.68 h
AUC(0-t) ([1]; male, Sprague-Dawley, rat, plasma, po, fasted male SD rats, single PO dose 200 mg/kg, mean ± SD, read-out: AUC0-24): 454 ± 98.4 µg·h/mL
AUC0-inf ([1]; male, Sprague-Dawley, rat, plasma, po, fasted male SD rats, single PO dose 200 mg/kg, mean ± SD, read-out: AUC0-inf): 536 ± 29.9 µg·h/mL
AUC(0-t) ([1]; male, Sprague-Dawley, rat, plasma, po, fasted male SD rats, single PO dose 200 mg/kg, mean ± SD, read-out: AUC0-t): 571 ± 249 µg·h/mL
Cmax ([1]; male, Sprague-Dawley, rat, plasma, po, fasted male SD rats, single PO dose 200 mg/kg, mean ± SD, read-out: Cmax): 31200 ± 7410 ng/mL
Tmax ([1]; male, Sprague-Dawley, rat, plasma, po, fasted male SD rats, single PO dose 200 mg/kg, mean ± SD, read-out: Tmax): 7.25 ± 9.25 h
Weight gain on sorption ([2]; between ~5% and ~95% RH): ~0.9 wt %
Weight loss on desorption ([2]; between ~95% and ~5% RH): ~0.9 wt %
Weight loss upon equilibration ([2]; equilibration at ~5% RH): ~0.3 wt %
Compound: CCc1cnc(N2CCC(c3nc(COc4ccc(-n5cnnn5)cc4)cs3)CC2)nc1.Cl [HCl Salt Form I, 5-ethyl-2-{4-[4-(4-tetrazol-1-yl-phenoxymethyl)-thiazol-2-yl]-piperidin-1-yl}-pyrimidine hydrochloride]

Mean plasma concentration of MBX-2982 ([1]; 0.5 h post dose, fasted male SD rats, PO 200 mg/kg, mean ± SD): 8520 ± 975 ng/mL
Mean plasma concentration of MBX-2982 ([1]; 1 h post dose, fasted male SD rats, PO 200 mg/kg, mean ± SD): 12200 ± 839 ng/mL
Mean plasma concentration of MBX-2982 ([1]; 2 h post dose, fasted male SD rats, PO 200 mg/kg, mean ± SD): 18800 ± 904 ng/mL
Mean plasma concentration of MBX-2982 ([1]; 4 h post dose, fasted male SD rats, PO 200 mg/kg, mean ± SD): 26700 ± 4390 ng/mL
Mean plasma concentration of MBX-2982 ([1]; 6 h post dose, fasted male SD rats, PO 200 mg/kg, mean ± SD): 21800 ± 6480 ng/mL
Mean plasma concentration of MBX-2982 ([1]; 9 h post dose, fasted male SD rats, PO 200 mg/kg, mean ± SD): 18000 ± 5180 ng/mL
Mean plasma concentration of MBX-2982 ([1]; 24 h post dose, fasted male SD rats, PO 200 mg/kg, mean ± SD): 476 ± 344 ng/mL
Mean plasma concentration of MBX-2982 ([1]; 24 h post dose, fasted male SD rats, PO 200 mg/kg, mean ± SD, listed as mesylate): 476 ng/mL
Fold difference in plasma concentration compared to micronized free-base form ([1]; male SD rats, PO 200 mg/kg): 7 fold
Mean plasma concentration of MBX-2982 ([1]; 30 h post dose, fasted male SD rats, PO 200 mg/kg, mean ± SD): 574 ± 641 ng/mL
Mean plasma concentration of MBX-2982 ([1]; 30 h post dose, fasted male SD rats, PO 200 mg/kg, mean ± SD, listed as mesylate): 574 ng/mL
Mean plasma concentration of MBX-2982 ([1]; 48 h post dose, fasted male SD rats, PO 200 mg/kg, mean ± SD): 82 ± 82 ng/mL
AUC0-24 [1, 4]: 314 ± 65.7 µg·h/mL
AUC0-inf [1, 4]: 323 ± 62.0 µg·h/mL
AUC(0-t) [1, 4]: 322 ± 63.6 µg·h/mL
Cmax [1, 4]: 26700 ± 4460 ng/mL
Tmax [1, 4]: 4.50 ± 1.00 h
t1/2 [1, 4]: 4.11 ± 1.29 h
Increase of systemic drug exposure in AUC0-t compared with micro MBX-2982 (free base) ([1]; male SD rats, PO 200 mg/kg): 1.4 fold
Appearance of the material after RH stress [3]: remained a free flowing powder
Compound: CCc1cnc(N2CCC(c3nc(COc4ccc(-n5cnnn5)cc4)cs3)CC2)nc1 [Mesylate Salt, 5-ethyl-2-{4-[4-(4-tetrazol-1-yl-phenoxymethyl)-thiazol-2-yl]-piperidin-1-yl}-pyrimidine]
